Values of other authors, collected in patent publication US10172811B2, “Topical antifungal composition for treating onychomycosis” (Polichem S.A., priority 2013, dated 2019).

How the values were obtained:
onychomycosis [1] = details: topical nail formulation; 48 weeks daily treatment, 12-week follow up
onychomycosis [2] = details: oral

Compound | Complete cure (onychomycosis [1]) | Responders (onychomycosis [1]) | Complete cure, proportion of patients (onychomycosis [2])
Cc1cc(C2CCCCC2)n(O)c(=O)c1 [ciclopirox] | about 13% | ~30% | –
CN(C/C=C/C#CC(C)(C)C)Cc1cccc2ccccc12 [terbinafine] | – | – | 38%
